Measured values from the supplement of paper PMC8967900.

Legend:
Assay in all cases: selective drug sensitivity score (sDSS, relative to normal bone marrow) (sDSS (score)); higher = more potent and effective on the cell line relative to normal bone marrow cells
Details in all cases: 72 h
COG-LL-332h = tested on: COG-LL-332h
380 = tested on: 380
TMD5 = tested on: TMD5
KASUMI-9 = tested on: KASUMI-9
LC4-1 = tested on: LC4-1
COG-LL-317 = tested on: COG-LL-317
PEER = tested on: PEER
P30-OHKUBO = tested on: P30-OHKUBO
COG-LL-394h = tested on: COG-LL-394h
RPMI-8402 = tested on: RPMI-8402
HPB-ALL = tested on: HPB-ALL
KASUMI-10 = tested on: KASUMI-10
COG-LL-402h = tested on: COG-LL-402h
ALL-PO = tested on: ALL-PO
DND-41 = tested on: DND-41
HAL-01 = tested on: HAL-01
MOLT-16 = tested on: MOLT-16
MHH-CALL-3 = tested on: MHH-CALL-3
MHH-CALL-2 = tested on: MHH-CALL-2
TANOUE = tested on: TANOUE
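Note: ALL cell lines in 384-well plates, five doses spanning 10,000-fold, each plate scaled between vehicle and 100 µmol/L benzalkonium chloride controls, sDSS an adapted area-under-curve metric.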

SMILES	selective drug sensitivity score (COG-LL-332h)	selective drug sensitivity score 380	selective drug sensitivity score (TMD5)	selective drug sensitivity score (KASUMI-9)	selective drug sensitivity score (LC4-1)	selective drug sensitivity score (COG-LL-317)	selective drug sensitivity score (PEER)	selective drug sensitivity score (P30-OHKUBO)	selective drug sensitivity score (COG-LL-394h)	selective drug sensitivity score (RPMI-8402)	selective drug sensitivity score (HPB-ALL)	selective drug sensitivity score (KASUMI-10)	selective drug sensitivity score (COG-LL-402h)	selective drug sensitivity score (ALL-PO)	selective drug sensitivity score (DND-41)	selective drug sensitivity score (HAL-01)	selective drug sensitivity score (MOLT-16)	selective drug sensitivity score (MHH-CALL-3)	selective drug sensitivity score (MHH-CALL-2)	selective drug sensitivity score (TANOUE)
CNC(=O)c1ccc(-c2cnc3ncc(Cc4ccc5ncccc5c4)n3n2)cc1F [Capmatinib] (top concentration 1000 nM)	-0.06	2.04	-0.06	-0.06	0.64	0.34	-0.06	-0.06	-0.06	-0.06	-0.06	-0.06	0.74	-0.06	0.34	2.34	0.04	-0.06	-0.06	0.44
COc1cc2c(Oc3ccc4[nH]c(C)cc4c3F)ncnc2cc1OCCCN1CCCC1 [Cediranib] (top concentration 1000 nM)	0	0	3.6	3.6	0	0.1	0	2.7	0	0	0	0	0	0	0	5.7	0	0	7.2	0
CCN(CC)CCCC(C)Nc1ccnc2cc(Cl)ccc12 (stereo not given) [Chloroquine] (top concentration 100000 nM)	-0.64	-4.94	-4.54	-1.94	-3.74	0.36	-0.94	0.26	-4.54	-1.74	-6.64	-4.24	-3.94	-1.64	-0.94	0.36	-3.14	-6.04	1.06	-6.04
C[C@@H](Oc1cc(-c2cnn(C3CCNCC3)c2)cnc1N)c1c(Cl)ccc(F)c1Cl [Crizotinib] (top concentration 1000 nM)	2.76	-0.54	1.66	-0.54	-0.54	-0.54	1.86	-0.54	0.86	-0.54	-0.54	-0.54	-0.54	1.46	-0.54	-0.54	-0.54	-0.54	-0.54	-0.54
COc1cc2ncnc(Nc3ccc(F)c(Cl)c3)c2cc1NC(=O)/C=C/CN1CCCCC1 [Dacomitinib] (top concentration 1000 nM)	-0.84	-1.64	1.46	0.96	-0.94	-0.44	-0.14	0.96	-1.64	-0.34	-1.54	-0.54	0.96	3.06	-1.04	2.66	-1.04	2.06	2.06	-1.64
CCN(CC)CCN(Cc1ccc(-c2ccc(C(F)(F)F)cc2)cc1)C(=O)Cn1c(SCc2ccc(F)cc2)nc(=O)c2c1CCC2 [Darapladib] (top concentration 1000 nM)	-0.92	-1.42	6.98	-1.32	-1.42	-1.42	-1.42	0.68	-1.42	-1.32	-1.42	-1.22	-1.42	-1.42	-0.72	0.58	3.28	-1.42	3.68	-1.42
C[C@@H]1C[C@H]2[C@@H]3CCC4=CC(=O)C=C[C@]4(C)[C@@]3(F)[C@@H](O)C[C@]2(C)[C@@]1(O)C(=O)CO [Dexamethasone] (top concentration 10000 nM)	1.88	32.2	14.9	1.78	12.5	11.3	-0.92	28.6	-1.52	3.18	3.18	-1.52	29.3	43.2	36.3	-1.42	9.68	40.3	28.9	-1.42
Cc1cc(C)c(CNC(=O)c2cc(-c3ccc(CN4CCOCC4)cc3)cc3c2cnn3C2CCCC2)c(=O)[nH]1 [EPZ-5687] (top concentration 10000 nM)	-0.36	-0.36	5.74	3.14	-0.36	-0.36	-0.36	2.24	-0.36	-0.16	-0.36	-0.36	-0.36	0.24	-0.36	3.24	-0.36	-0.36	5.14	-0.36
C=C1C[C@@H]2CC[C@@]34C[C@H]5O[C@H]6[C@@H](O3)[C@H]3O[C@H](CC[C@@H]3O[C@H]6[C@H]5O4)CC(=O)C[C@@H]3[C@@H](OC)[C@@H](C[C@H](O)CN)O[C@H]3C[C@H]3O[C@@H](CC[C@@H]1O2)C[C@@H](C)C3=C [Eribulin] (top concentration 1000 nM)	20.6	24.2	12.5	24	24	26.3	23.6	19.6	6.7	22.1	13.2	20.2	17.3	16.3	9.1	4.6	28.6	13.1	15.8	-8.6
O=c1[nH]cc(F)c(=O)[nH]1 [Fluorouracil] (top concentration 10000 nM)	4.26	1.86	-0.64	3.26	5.16	8.26	-0.64	3.16	-0.34	2.66	-0.24	2.96	3.36	8.56	-0.64	-0.44	6.36	-0.24	-0.04	-0.64
CC(C)C(=O)Nc1ccc([N+](=O)[O-])c(C(F)(F)F)c1 [Flutamide] (top concentration 10000 nM)	-0.56	-0.56	6.64	1.64	-0.46	-0.56	0.94	0.94	-0.26	0.74	-0.56	-0.56	-0.56	-0.56	-0.16	3.94	0.34	-0.56	9.74	0.04
C[C@]12CC[C@@H]3c4ccc(O)cc4C[C@@H](CCCCCCCCC[S+]([O-])CCCC(F)(F)C(F)(F)F)[C@H]3[C@@H]1CC[C@@H]2O (stereo not given in full) [Fulvestrant] (top concentration 1000 nM)	0	0	2.3	0	0	0	0	0	0	0	0.2	0	0	2.3	8.3	0	0	0	1.5	0
CCCOc1ccn2c(C(C)=O)cc(-c3ccccc3S(C)(=O)=O)c2c1 [GSK2801] (top concentration 10000 nM)	2.04	3.44	-0.36	-0.36	0.24	0.84	0.34	-0.36	-0.16	-0.16	-0.36	-0.36	-0.36	0.04	-0.26	-0.36	-0.16	-0.36	-0.16	-0.36
Cc1cccc(-c2nn3c(c2-c2ccnc4ccc(C(N)=O)cc24)CCC3)n1 [Galunisertib] (top concentration 1000 nM)	0	0	0	1.3	0	0	0	2.9	0	0	0	0	0	0	0	1.6	0	0	8.5	0
O=C(O)CNC(=O)c1c(O)c2ccccc2n(Cc2ccccc2)c1=O [IOX-2] (top concentration 50000 nM)	-0.62	8.98	-0.82	-0.42	-0.82	-0.82	-0.82	-0.12	-0.82	-0.82	0.68	-0.82	-0.82	-0.22	-0.82	-0.82	-0.82	0.88	1.78	-0.82
C#Cc1cccc(Nc2ncnc3cc4c(cc23)OCCOCCOCCO4)c1 [Icotinib] (top concentration 10000 nM)	0.3	3.6	7.5	4.9	3.2	0	0.7	2.1	0	2.3	0	0	0	0.7	0	1.2	2.2	1.3	4.8	0
CC(C)Cn1cnc2c(N)nc3ccccc3c21 [Imiquimod] (top concentration 2500 nM)	0	9	4.4	0.9	0.3	0	0	0	0.8	0	2.6	0	0	0.4	0	2.6	0.5	0	1.7	0.1
N#Cc1ccnc(N2C(=O)CC[C@H]2C(=O)N(c2cncc(F)c2)[C@H](C(=O)NC2CC(F)(F)C2)c2ccccc2Cl)c1 [Ivosidenib] (top concentration 10000 nM)	1	3	1.8	0.9	0	1.8	0.6	1.1	0	0.8	0	0	0	0	0	3.2	1	0	11.9	0
